Measurements from US9441012B2, “Fluorinated epoxyketone-based compounds and uses thereof as proteasome inhibitors” (FLUORINOV PHARMA INC., priority 2012, dated 2016).

Tests used:
Assay in all cases: NCI 60 human tumor cell line screen (SRB)
Format in all cases: cell-based
NCI-H322M = NCI-H322M (Non-Small Cell Lung Cancer); 48 h
Excerpt: (§1) Representative compounds of Formula I were screened using the National Cancer Institute (NCI) screening panel, which consists of a panel of 60 different human tumor cell lines, representing leukemia [CCRF-CEM, HL-60 (TB), K-562, MOLT-4, SR], melanoma [LOX IMVI, MALME-3M, M14, SMDA-MB-435, SK-MEL-2, SK-MEL-28, SK-MEL-5, UACC-257 and UACC-62] and cancers of the lung [A549/ATCC, EKVX, HOP-62, HOP-93, NCI-H226, NCI-H23, NCI-H322M, NCI-H460], colon [COLO 205, HCT-116, HCT-15, HT29, KM12, SW-620], brain [SF-268, SF-295, SF-539, SNB-19, SNB-75, U251], ovary [IGROV1, OVCAR-3, OVCAR-4, OVCAR-5, OVCAR-8, NCI/ADR-RES, SK-OV-3], breast [MCF7, MDA-MB-231, BT-549, T-47D, MDA-MB-468], prostate [PC-3, DU-145], and renal[786-0, A498, ACHN, CAKI-1, RXF-393, SN12C, TK-10, UO-31] cancers.
(§2) After 24 h, two plates of each cell line are fixed in situ with TCA, to represent a measurement of the cell population for each cell line at the time of drug addition (Tz). Experimental drugs are solubilised in dimethyl sulfoxide at 400-fold the desired final maximum test concentration and stored frozen prior to use. At the time of drug addition, an aliquot of frozen concentrate is thawed and diluted to twice the desired final maximum test concentration with complete medium containing 50 μg/ml gentamicin. Additional four, 10-fold or ½ log serial dilutions are made to provide a total of five drug concentrations plus control. Aliquots of 100 μl of these different drug dilutions are added to the appropriate microtiter wells already containing 100 μl of medium, resulting in the required final drug concentrations.
(§3) Following drug addition, the plates are incubated for an additional 48 h at 37° C., 5% CO2, 95% air, and 100% relative humidity. For adherent cells, the assay is terminated by the addition of cold TCA (trichloroacetic acid). Cells are fixed in situ by the gentle addition of 50 μl of cold 50% (w/v) TCA (final concentration, 10% TCA) and incubated for 60 minutes at 4° C. The supernatant is discarded, and the plates are washed five times with tap water and air dried. Sulforhodamine B (SRB) solution (100 μl) at 0.4% (w/v) in 1% acetic acid is added to each well, and plates are incubated for 10 minutes at room temperature. After staining, unbound dye is removed by washing five times with 1% acetic acid and the plates are air dried. Bound stain is subsequently solubilised with 10 mM trizma base, and the absorbance is read on an automated plate reader at a wavelength of 515 nm. For suspension cells, the methodology is the same except that the assay is terminated by fixing settled cells at the bottom of the wells by gently adding 50 μl of 80% TCA (final concentration, 16% TCA). Using the seven absorbance measurements [time zero, (Tz), control growth, (C), and test growth in the presence of drug at the five concentration levels (Ti)], the percentage growth is calculated at each of the drug concentration levels. Percentage growth inhibition is calculated as: [(Ti−Tz)/(C−Tz)]×100 for concentrations in which Ti>/=Tz and [(Ti−Tz)/Tz]×100 for concentrations in which Ti<Tz.
(§4) Three dose response parameters are calculated for each experimental agent. Growth inhibition of 50% (GI50) is calculated from [(Ti−Tz)/(C−Tz)]100=50, which is the drug concentration resulting in a 50% reduction in the net protein increase (as measured by SRB staining) in control cells during the drug incubation. The drug concentration resulting in total growth inhibition (TGI) is calculated from Ti=Tz. The LC50 (concentration of drug resulting in a 50% reduction in the measured protein at the end of the drug treatment as compared to that at the beginning) indicating a net loss of cells following treatment is calculated from [(Ti−Tz)/Tz]×100=−50. Values are calculated for each of these three parameters if the level of activity is reached. However, if the effect is not reached or is exceeded, the value for that parameter is expressed as greater or less than the maximum or minimum concentration tested.

HS 578T = HS 578T (Breast Cancer); 48 h
Excerpt: as §1, §2, §3, §4

KM12 = KM12 (Colon Cancer); 48 h
Excerpt: as §1, §2, §3, §4

MDA-MB-435 = MDA-MB-435 (Melanoma); 48 h
Excerpt: as §1, §2, §3, §4

MDA-MB-468 = MDA-MB-468 (Breast Cancer); 48 h
Excerpt: as §1, §2, §3, §4

NCI-H226 = NCI-H226 (Non-Small Cell Lung Cancer); 48 h
Excerpt: as §1, §2, §3, §4

PC-3 = PC-3 (Prostate Cancer); 48 h
Excerpt: as §1, §2, §3, §4

SW-620 = SW-620 (Colon Cancer); 48 h
Excerpt: as §1, §2, §3, §4

MCF7 = MCF7 (Breast Cancer); 48 h
Excerpt: as §1, §2, §3, §4

UACC-62 = UACC-62 (Melanoma); 48 h
Excerpt: as §1, §2, §3, §4

SK-MEL-5 = SK-MEL-5 (Melanoma); 48 h
Excerpt: as §1, §2, §3, §4

HCT-116 = HCT-116 (Colon Cancer); 48 h
Excerpt: as §1, §2, §3, §4

SMILES | Log10GI50 (NCI-H322M) | Log10LC50 (NCI-H322M) | Log10TGI50 (NCI-H322M) | Log10GI50 (HS 578T) | Log10LC50 (HS 578T) | Log10TGI50 (HS 578T) | Log10GI50 (KM12) | Log10LC50 (KM12) | Log10TGI50 (KM12) | Log10GI50 (MDA-MB-435) | Log10TGI50 (MDA-MB-435) | Log10GI50 (MDA-MB-468) | Log10TGI50 (MDA-MB-468) | Log10GI50 (NCI-H226) | Log10TGI50 (NCI-H226) | Log10GI50 (PC-3) | Log10LC50 (PC-3) | Log10TGI50 (PC-3) | Log10GI50 (SW-620) | Log10LC50 (SW-620) | other results
Cc1ncc(C(=O)N[C@@H](COC(F)F)C(=O)N[C@@H](COC(F)F)C(=O)N[C@@H](Cc2ccccc2)C(=O)[C@@]2(C)CO2)s1 [Example 1, 2-methyl-thiazole-5-carboxylic acid ((S)-1-{(S)-1-[(S)-1-benzyl-2-((R)-2-methyloxiranyl)-2-oxo-ethylcarbamoyl]-2-difluoromethoxyethylcarbamoyl}-2-difluoromethoxyethyl)-amide] | −5.54 | −4.23 | −4.74 | −7.33 | >−4.00 | −5.44 | −6.88 | −6.10 | −6.49 | −7.43 | −6.74 | −6.75 | −6.32 | −7.44 | −6.84 | −6.48 | >−4.00 | −4.99 | −7.39 | −4.40 | Log10LC50 (MDA-MB-435): >−4.00; Log10TGI50 (SW-620): −5.95; Log10GI50 (MCF7): −7.35; Log10LC50 (MCF7): >−4.00; Log10TGI50 (MCF7): −4.62; Log10GI50 (UACC-62): −6.68; Log10LC50 (UACC-62): −4.95; Log10TGI50 (UACC-62): −5.78; Log10GI50 (SK-MEL-5): −7.15; Log10LC50 (SK-MEL-5): −5.47; Log10TGI50 (SK-MEL-5): −6.34; Log10GI50 (HCT-116): −7.32; Log10LC50 (HCT-116): −6.17; Log10TGI50 (HCT-116): −6.71
CC(C)C[C@H](NC(=O)[C@H](Cc1ccccc1)NC(=O)[C@H](COC(F)F)NC(=O)CN1CCOCC1)C(=O)[C@@]1(C)CO1 [Example 25, (2S)-2-[[(2S)-3-(difluoromethoxy)-2-[(2-morpholinoacetyl)amino]propanoyl]amino]-N-[(1S)-3-methyl-1-[(2R)-2-methyloxirane-2-carbonyl]butyl]-3-phenyl-propanamide] | −7.10 | >−4.00 | −6.33 | −7.54 | >−4.00 | −6.24 | −7.72 | −7.06 | −7.39 | −7.75 | −7.42 | −7.54 | −6.96 | −7.77 | −7.43 | −7.45 | −5.14 | −6.80 | −7.41 | >−4.00 | Log10LC50 (MDA-MB-435): −7.10; Log10LC50 (MDA-MB-468): >−4.00; Log10LC50 (NCI-H226): −7.10; Log10TGI50 (SW-620): −5.93; Log10GI50 (MCF7): −7.53; Log10LC50 (MCF7): >−4.00; Log10TGI50 (MCF7): −4.89; Log10GI50 (UACC-62): −7.35; Log10LC50 (UACC-62): −4.58; Log10TGI50 (UACC-62): −6.63; Log10GI50 (SK-MEL-5): −7.60; Log10LC50 (SK-MEL-5): −6.49; Log10TGI50 (SK-MEL-5): −7.17; Log10GI50 (HCT-116): −7.70; Log10LC50 (HCT-116): −6.55; Log10TGI50 (HCT-116): −7.30
C[C@]1(C(=O)[C@H](Cc2ccccc2)NC(=O)[C@H](COC(F)F)NC(=O)[C@H](COC(F)F)NC(=O)CN2CCOCC2)CO1 [Example 26, (S)-N-{(S)-1-[(S)-1-Benzyl-2-((R)-2-methyl-oxiranyl)-2-oxo-ethylcarbamoyl]-2-difluoromethoxyethyl}-3-difluoromethoxy-2-(2-morpholin-4-yl-acetylamino)-propio-namide] | −7.10 | >−4.00 | −6.33 | −7.54 | >−4.00 | −6.24 | −7.72 | −7.06 | −7.39 | −7.75 | −7.42 | −7.54 | −6.96 | −7.77 | −7.43 | −7.45 | −5.14 | −6.80 | −7.41 | >−4.00 | Log10LC50 (MDA-MB-435): −7.10; Log10LC50 (MDA-MB-468): >−4.00; Log10LC50 (NCI-H226): −7.10; Log10TGI50 (SW-620): −5.93; Log10GI50 (MCF7): −7.53; Log10LC50 (MCF7): >−4.00; Log10TGI50 (MCF7): −4.89; Log10GI50 (UACC-62): −7.35; Log10LC50 (UACC-62): −4.58; Log10TGI50 (UACC-62): −6.63; Log10GI50 (SK-MEL-5): −7.60; Log10LC50 (SK-MEL-5): −6.49; Log10TGI50 (SK-MEL-5): −7.17; Log10GI50 (HCT-116): −7.70; Log10LC50 (HCT-116): −6.55; Log10TGI50 (HCT-116): −7.30
C[C@]1(C(=O)[C@H](Cc2ccccc2)NC(=O)[C@H](Cc2ccccc2)NC(=O)[C@H](COC(F)F)NC(=O)CN2CCOCC2)CO1 [Example 29] | −6.27 | −4.18 | −5.52 | −7.07 | >−4.00 | >−4.00 | −7.35 | −6.27 | −6.77 | −7.63 | −7.17 | −6.67 | −6.10 | −7.64 | −7.24 | −7.04 | >−4.00 | −6.40 | −7.40 | >−4.00 | Log10LC50 (MDA-MB-468): >−4.00; Log10LC50 (NCI-H226): −6.51; Log10TGI50 (SW-620): −4.92; Log10GI50 (MCF7): −7.38; Log10LC50 (MCF7): >−4.00; Log10TGI50 (MCF7): >−4.00; Log10GI50 (UACC-62): −7.00; Log10LC50 (UACC-62): >−4.00; Log10TGI50 (UACC-62): −6.37; Log10GI50 (SK-MEL-5): −7.22; Log10LC50 (SK-MEL-5): −6.20; Log10TGI50 (SK-MEL-5): −6.66; Log10GI50 (HCT-116): −7.46; Log10LC50 (HCT-116): >−4.00; Log10TGI50 (HCT-116): −5.91
